{
  "source": "paper PMC9501232",
  "about": "“Novel 4-Azapregnene Derivatives as Potential Anticancer Agents: Synthesis, Antiproliferative Activity and Molecular Docking Studies” (Molecules, 2022)",
  "key": {"T47-D cells": {"system": "T47-D cells", "test": "Fluorescence microscopy, PI/Hoechst 3342 staining", "format": "cell-based, human", "settings": "20 µM, 24, 48 and 72 h, vs negative and positive controls", "procedure": "To access the effects of the compound 3g in T47-D cells, fluorescence microscopy assays with Hoechst 3342 and PI staining were performed. T47-D cells were seeded at 2 × 10^4 cells/mL in a 24-well culture plate containing circular coverslips of 10 mm diameter, in a complete culture medium. After 48 h, cells were incubated during 24, 48 and 72 h, with 5-FU at 20 µM, as the positive control, steroid 3g at 20 µM, and untreated cells were used as a negative control. Then, cells were incubated with 20 µL/per well of a solution of PI in PBS at 1 mg/mL for 25 min at 37 °C. The medium was removed, and the cells were fixed with formalin 4% for 15 min at room temperature. Cells were washed three times with PBS and then they were incubated with 30 µL/per coverslip of Hoechst 33,342 (1:500) for 10 min. After incubation, cells were washed three times with PBS. Coverslips were mounted on a drop of permanent mounting medium (Dako) on a microscope slide and visualized in a Zeiss Axio Imager A1 microscope with the 40 × objective. The PI/Hoechst 3342 ratio was calculated by dividing PI-positive cells by Hoechst 3342-positive cells and, then the values were normalized."}, "LNCaP cells": {"system": "LNCaP cells", "test": "Microscopic cell morphology observation", "format": "cell-based, human", "settings": "24 and 72 h of treatment", "procedure": "In our previous work, 16E-arylidene-4-azaandrost-5-ene derivatives were synthesized, their antiproliferative effects were evaluated and further studies were performed with the most promising steroid in LNCaP cells. Due to the similarity of 16E-arylidene-4-azaandrostenes and these novel 21E-arylidene-4-azapregnene derivatives, identical studies in this cell line were performed, namely a flow cytometry assay and microscopic cell morphology observation. To assess the viability of LNCaP cells when exposed to steroid 3g, a flow cytometry assay after PI staining was performed. Cells were treated with 3g and 5-FU during 24 and 72 h, and then a microscopic cell observation was performed to assess the possible morphological alterations and cell density changes triggered by incubation with 3g and compare with controls (Figure 6).\nSimilar to the previous study, the analysis of cell viability was accomplished by flow cytometry after staining dead cells with propidium iodide (PI; Invitrogen, Carlsbad, USA). Succinctly, 1 mL of a cell suspension was seeded in 12-well culture plates (initial cell density of 5 × 10^4 cells/mL of LNCaP cells for 24 h assay and 2 × 10^4 cells/mL of the same cell line for 72 h assay) in a complete culture medium. […] The percentages of each region were calculated for a total of R1 + R2 + R3. […]"}},
  "data": [
    {"smiles": "C[C@]12CC[C@H]3[C@@H](CC=C4NC(=O)CC[C@@]43C)[C@@H]1CC[C@@H]2C(=O)/C=C/c1cccnc1", "note": "[Compound 3g, 21E-[(Pyridin-3-yl)methylidene]-4-azapregn-5-ene-3,20-dione]", "values": [
      {"measurement": "Ratio of PI/Hoechst 3342 staining", "setting": "T47-D cells", "value": "higher ratio of PI/Hoechst 3342 staining"},
      {"measurement": "Cell morphology and cell density", "setting": "LNCaP cells", "value": "detached, forming clusters and presenting a round form"}
    ]}
  ]
}
